Read-outs that look alike come from different tables or passages of the source.
What was measured:
[1] = test system: hiPSC-derived neurons co-cultured with human primary astrocytes in 2D; assay: Ca2+ transient oscillation assay (FDSS), 2D co-culture; assay type: cell-based; conditions: Homo sapiens, 1 h, 60 min
In short: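 Cultures were 10,000 CW50065 hiPSC excitatory neurons plus 2500 primary human astrocytes per well. Recordings used Cal-520 dye in HBSS/HEPES/glucose at 37 °C, with a 470/540 nm read at 2 Hz. Oscillations were stabilized with 0.04% DMSO, read for 20 min, then read again 60 min after compound addition (final DMSO 0.1%).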

[2] = test system: hiPSC-derived neurons co-cultured with human primary astrocytes in 3D; assay: Ca2+ transient oscillation assay (FDSS), 3D spheroids; assay type: cell-based; conditions: 60 min
In short: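 Fura-2 fluorescence was read twice for 20 min each: a baseline 10 min after 0.04% DMSO, and again 60 min after compound addition at nominal final concentration. The 3D co-cultures (1:1 hiPSC neurons from a donor and human astrocytes, 8000 each) matured 5 weeks in BrainPhys medium after a 1-week differentiation.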

[3] = ref PharmaPendium, cited from earlier work
[4] = read-out: Area under the curve - 2D Mean
[5] = read-out: Peak amplitude - 2D Mean
[6] = read-out: Peak-to-peak interval - 2D Mean
[7] = Table 1, peak plasma concentration in men, free therapeutic Cmax
[8] = Table 2, highest plasma concentration in humans after the therapeutic dose

CC(=O)Oc1ccccc1C(=O)O [Aspirin]
activation at 3.7 µM [1, 4]: 48.5% | activation at 3.7 µM ([1]; read-out: Peak Number—2D Mean): -10.2% | activation at 3.7 µM [1, 5]: 13.1% | activation at 3.7 µM ([1]; read-out: Peak width - 2D Mean): 43.6% | activation at 3.7 µM [1, 6]: 15.5% | activation at 11.11 µM [1, 4]: 25.7% | activation at 11.11 µM ([1]; read-out: Peak Number—2D Mean): 17.6% | activation at 11.11 µM [1, 5]: 4.2% | activation at 11.11 µM ([1]; read-out: Peak width - 2D Mean): 25.9% | activation at 11.11 µM [1, 6]: 1.8% | activation at 33.33 µM [1, 4]: 37.6% | activation at 33.33 µM ([1]; read-out: Peak Number—2D Mean): 10.1% | activation at 33.33 µM [1, 5]: 6.2% | activation at 33.33 µM ([1]; read-out: Peak width - 2D Mean): 38.3% | activation at 33.33 µM [1, 6]: -0.5% | activation at 100 µM [1, 4]: 30% | activation at 100 µM ([1]; read-out: Peak Number—2D Mean): 27.9% | activation at 100 µM [1, 5]: 3.9% | activation at 100 µM ([1]; read-out: Peak width - 2D Mean): 32.1% | activation at 100 µM [1, 6]: -17% | Area under the curve - 3D Mean ([2]; 3.7 µM): 139.0 % change from baseline | Peak Number—3D Mean ([2]; 3.7 µM): −0.4 % change from baseline | Peak amplitude - 3D Mean ([2]; 3.7 µM): 129.1 % change from baseline | Peak width - 3D Mean ([2]; 3.7 µM): 4.2 % change from baseline | Peak-to-peak interval - 3D Mean ([2]; 3.7 µM): 10.9 % change from baseline | Area under the curve - 3D Mean ([2]; 11.11 µM): 139.2 % change from baseline | Peak Number—3D Mean ([2]; 11.11 µM): 0.0 % change from baseline | Peak amplitude - 3D Mean ([2]; 11.11 µM): 138.1 % change from baseline | Peak width - 3D Mean ([2]; 11.11 µM): 0.3 % change from baseline | Peak-to-peak interval - 3D Mean ([2]; 11.11 µM): −2.2 % change from baseline | Area under the curve - 3D Mean ([2]; 33.33 µM): 147.8 % change from baseline | Peak Number—3D Mean ([2]; 33.33 µM): 10.0 % change from baseline | Peak amplitude - 3D Mean ([2]; 33.33 µM): 135.8 % change from baseline | Peak width - 3D Mean ([2]; 33.33 µM): 5.0 % change from baseline | Peak-to-peak interval - 3D Mean ([2]; 33.33 µM): −1.7 % change from baseline | Area under the curve - 3D Mean ([2]; 100 µM): 133.2 % change from baseline | Peak Number—3D Mean ([2]; 100 µM): −8.2 % change from baseline | Peak amplitude - 3D Mean ([2]; 100 µM): 123.5 % change from baseline | Peak width - 3D Mean ([2]; 100 µM): 4.7 % change from baseline | Peak-to-peak interval - 3D Mean ([2]; 100 µM): 6.7 % change from baseline | Free Cmax [3, 7]: 40 to 160 nM | Free Cmax [3, 8]: 40 to 160 nM

NC(=O)N1c2ccccc2C=Cc2ccccc21 [Carbamazepine]
activation at 3.7 µM [1, 4]: 31.5% | activation at 3.7 µM ([1]; read-out: Peak Number—2D Mean): -15.3% | activation at 3.7 µM [1, 5]: 16.5% | activation at 3.7 µM ([1]; read-out: Peak width - 2D Mean): 19% | activation at 3.7 µM [1, 6]: 0.8% | activation at 11.11 µM [1, 4]: 62% | activation at 11.11 µM ([1]; read-out: Peak Number—2D Mean): -17% | activation at 11.11 µM [1, 5]: 8.5% | activation at 11.11 µM ([1]; read-out: Peak width - 2D Mean): 66.5% | activation at 11.11 µM [1, 6]: 45.8% | activation at 33.33 µM [1, 4]: -39.7% | activation at 33.33 µM ([1]; read-out: Peak Number—2D Mean): -76.8% | activation at 33.33 µM [1, 5]: -52% | activation at 33.33 µM ([1]; read-out: Peak width - 2D Mean): -36.7% | activation at 33.33 µM [1, 6]: 45% | activation at 100 µM [1, 4]: -100% | activation at 100 µM ([1]; read-out: Peak Number—2D Mean): -100% | activation at 100 µM [1, 5]: -100% | activation at 100 µM ([1]; read-out: Peak width - 2D Mean): -100% | activation at 100 µM [1, 6]: -100% | Area under the curve - 3D Mean ([2]; 3.7 µM): 122.1 % change from baseline | Peak Number—3D Mean ([2]; 3.7 µM): 11.4 % change from baseline | Peak amplitude - 3D Mean ([2]; 3.7 µM): 114.1 % change from baseline | Peak width - 3D Mean ([2]; 3.7 µM): 2.9 % change from baseline | Peak-to-peak interval - 3D Mean ([2]; 3.7 µM): −4.9 % change from baseline | Area under the curve - 3D Mean ([2]; 11.11 µM): 121.7 % change from baseline | Peak Number—3D Mean ([2]; 11.11 µM): 3.9 % change from baseline | Peak amplitude - 3D Mean ([2]; 11.11 µM): 114.1 % change from baseline | Peak width - 3D Mean ([2]; 11.11 µM): 2.8 % change from baseline | Peak-to-peak interval - 3D Mean ([2]; 11.11 µM): 9.5 % change from baseline | Area under the curve - 3D Mean ([2]; 33.33 µM): 107.4 % change from baseline | Peak Number—3D Mean ([2]; 33.33 µM): −19.3 % change from baseline | Peak amplitude - 3D Mean ([2]; 33.33 µM): 93.5 % change from baseline | Peak width - 3D Mean ([2]; 33.33 µM): 5.1 % change from baseline | Peak-to-peak interval - 3D Mean ([2]; 33.33 µM): 33.5 % change from baseline | Area under the curve - 3D Mean ([2]; 100 µM): 173.0 % change from baseline | Peak Number—3D Mean ([2]; 100 µM): −21.5 % change from baseline | Peak amplitude - 3D Mean ([2]; 100 µM): 85.2 % change from baseline | Peak width - 3D Mean ([2]; 100 µM): 43.8 % change from baseline | Peak-to-peak interval - 3D Mean ([2]; 100 µM): 25.1 % change from baseline | Free Cmax [3, 7]: 10000 nM | Free Cmax [3, 8]: 10000 nM

CN(C)CCCN1c2ccccc2Sc2ccc(Cl)cc21 [Chlorpromazine]
activation at 0.11 µM [1, 4]: 26.5% | activation at 0.11 µM ([1]; read-out: Peak Number—2D Mean): -27% | activation at 0.11 µM [1, 5]: 8.7% | activation at 0.11 µM ([1]; read-out: Peak width - 2D Mean): 18% | activation at 0.11 µM [1, 6]: 47.2% | activation at 0.33 µM [1, 4]: 36% | activation at 0.33 µM ([1]; read-out: Peak Number—2D Mean): -29.5% | activation at 0.33 µM [1, 5]: 4% | activation at 0.33 µM ([1]; read-out: Peak width - 2D Mean): 38.5% | activation at 0.33 µM [1, 6]: 48% | activation at 1 µM [1, 4]: 10.7% | activation at 1 µM ([1]; read-out: Peak Number—2D Mean): -59.8% | activation at 1 µM [1, 5]: -4.3% | activation at 1 µM ([1]; read-out: Peak width - 2D Mean): 13.8% | activation at 1 µM [1, 6]: 151% | activation at 3 µM [1, 4]: -100% | activation at 3 µM ([1]; read-out: Peak Number—2D Mean): -100% | activation at 3 µM [1, 5]: -100% | activation at 3 µM ([1]; read-out: Peak width - 2D Mean): -100% | activation at 3 µM [1, 6]: -100% | Area under the curve - 3D Mean ([2]; 0.11 µM): 128.5 % change from baseline | Peak Number—3D Mean ([2]; 0.11 µM): 6.5 % change from baseline | Peak amplitude - 3D Mean ([2]; 0.11 µM): 96.7 % change from baseline | Peak width - 3D Mean ([2]; 0.11 µM): 13.3 % change from baseline | Peak-to-peak interval - 3D Mean ([2]; 0.11 µM): 10.0 % change from baseline | Area under the curve - 3D Mean ([2]; 0.33 µM): 129.9 % change from baseline | Peak Number—3D Mean ([2]; 0.33 µM): −2.6 % change from baseline | Peak amplitude - 3D Mean ([2]; 0.33 µM): 100.7 % change from baseline | Peak width - 3D Mean ([2]; 0.33 µM): 13.6 % change from baseline | Peak-to-peak interval - 3D Mean ([2]; 0.33 µM): 12.5 % change from baseline | Area under the curve - 3D Mean ([2]; 1 µM): 132.1 % change from baseline | Peak Number—3D Mean ([2]; 1 µM): 11.5 % change from baseline | Peak amplitude - 3D Mean ([2]; 1 µM): 102.4 % change from baseline | Peak width - 3D Mean ([2]; 1 µM): 13.0 % change from baseline | Peak-to-peak interval - 3D Mean ([2]; 1 µM): −9.6 % change from baseline | Area under the curve - 3D Mean ([2]; 3 µM): 131.9 % change from baseline | Peak Number—3D Mean ([2]; 3 µM): −4.8 % change from baseline | Peak amplitude - 3D Mean ([2]; 3 µM): 98.4 % change from baseline | Peak width - 3D Mean ([2]; 3 µM): 16.6 % change from baseline | Peak-to-peak interval - 3D Mean ([2]; 3 µM): 6.0 % change from baseline | Free Cmax [3, 7]: 50 to 150 nM | Free Cmax [3, 8]: 50 to 150 nM

Source: publication PMC10046961, “High-Throughput Screening Assay for Detecting Drug-Induced Changes in Synchronized Neuronal Oscillations and Potential Seizure Risk Based on Ca^2+ Fluorescence Measurements in Human Induced Pluripotent Stem Cell (hiPSC)-Derived Neuronal 2D and 3D Cultures” (Cells, 2023)
